# Read-outs that look alike come from different tables or passages of the source.
# How the values were obtained:
# Experiment in all cases: microbe, parasite or virus in culture
# M. tuberculosis H37Rv [1] = system: T1, M. tuberculosis H37Rv; set-up: species or system M. bovis BCG, M. tuberculosis H37Rv or N0145; conditions: Mycobacterium tuberculosis, 15 h, read-out: Replicating ATP IC50 (µM) H37Rv / −Q203
# T1 construct: H37Rv
# M. tuberculosis N0145 [2] = system: T2, M. tuberculosis N0145; set-up: species or system M. bovis BCG, M. tuberculosis H37Rv or N0145
# T2 construct: N0145 (clinical isolate)
# M. bovis BCG [3] = system: T3, M. bovis BCG; set-up: species or system M. tuberculosis H37Rv or N0145; conditions: Mycobacterium tuberculosis variant bovis BCG, 15 h, read-out: BCG / −Q203
# T3 construct: BCG
# M. bovis BCG [4] = system: T3, M. bovis BCG; set-up: species or system M. tuberculosis H37Rv or N0145; conditions: Mycobacterium tuberculosis variant bovis BCG, 15 h, read-out: BCG / −Q203; remark: listed apart in the source
# M. tuberculosis N0145 [5] = system: T2, M. tuberculosis N0145; set-up: species or system M. bovis BCG, M. tuberculosis H37Rv or N0145; conditions: Mycobacterium tuberculosis, N0145, 15 h; read-out: N0145 / –Q203
# M. tuberculosis H37Rv [6] = system: T1, M. tuberculosis H37Rv; set-up: ATP depletion in replicating mycobacteria without Q203, BacTiter-Glo luminescence; conditions: Mycobacterium tuberculosis, 15 h, read-out: Replicating ATP IC50 (µM) H37Rv / −Q203
# [7] = Mycobacterium tuberculosis, N0145, 15 h; read-out: N0145 / –Q203
Compound,IC50 (M. tuberculosis H37Rv [1]) [µM],IC50 (M. tuberculosis N0145 [2]; [7]) [µM],IC50 (M. bovis BCG [3]) [µM],IC50 (M. bovis BCG [4]) [µM],IC50 (M. tuberculosis N0145 [5]) [µM],IC50 (M. tuberculosis H37Rv [6]) [µM],"IC50 (M. tuberculosis N0145 [2]; Mycobacterium tuberculosis, N0145, 15 h, read-out: N0145 / –Q203) [µM]"
"FC(F)(F)c1ccc(CCNc2ncnc3ccccc23)cc1 [6a, Quinazolin-4-yl{2-[4-(trifluoromethyl)phenyl]ethyl}amine]",> 25,> 25,> 25,,,,
FC(F)(F)c1ccc(Oc2ccc(Nc3ncnc4ccccc34)cc2)cc1 [compound 2],> 25,> 25,> 25,,,,
"FC(F)(F)c1ccccc1CCNc1ncnc2ccccc12 [15a, Quinazolin-4-yl{2-[2-(trifluromethyl)phenyl]ethyl}amine]",> 25,> 25,> 25,,,,
Cc1nc(NCCc2ccc(OC(F)(F)F)cc2)c2ccc(F)cc2n1 [26a],,,,> 25,> 25,23.6 ± 7.81,
c1ccc(CCNc2ncnc3ccccc23)cc1 [compound 3],> 25,,> 25,,,,> 25
FC(F)(F)Oc1ccc(CCNc2nc(C3CC3)nc3ccccc23)cc1 [25a],,,,8.5 ± 1.53,7.3 ± 1.05,7.6 ± 1.03,
CCOc1cccc(CCNc2ncnc3ccccc23)c1 [14a],> 25,> 25,> 25,,,,
Cc1nc(NCCc2ccc(OC(F)(F)F)cc2)c2ccccc2n1 [24a],,,,12.2 ± 0.737,8.2 ± 0.654,7.5 ± 1.02,
"Fc1ccc2c(NCCc3ccc(OC(F)(F)F)cc3)ncnc2c1 [19a, (7-Fluoroquinazolin-4-yl){2-[4-(trifluormethoxy)phenyl]ethyl}amine]",,,,> 25,> 25,> 25,
"CC(C)(C)c1ccc(CCNc2ncnc3ccccc23)cc1 [12a, {2-[4-(tert-Butyl)phenyl]ethyl}quinazolin-4-ylamine]",> 25,> 25,> 25,,,,
CC(C)=CCC/C(C)=C/CC/C(C)=C/Cc1c(C)[nH]c2ccccc2c1=O [aurachin D],5.5 ± 1.11,> 25,> 25,,,,
Cc1ccc(CCNc2ncnc3ccccc23)cc1 [10a],> 25,> 25,> 25,,,,
"FC(F)(F)Oc1ccc(CCNc2ncnc3ccccc23)cc1 [7a, Quinazolin-4-yl{2-[4-(trifluoromethoxy)phenyl]ethyl}amine]",> 25,> 25,> 25,,,,
Cc1ccc2ncnc(NCCc3ccc(OC(F)(F)F)cc3)c2c1 [17a],,,,> 25,> 25,> 25,
FC(F)(F)Oc1ccc(CCNc2ncnc3cc(C(F)(F)F)ccc23)cc1 [22a],,,,> 25,> 25,> 25,
FS(F)(F)(F)(F)c1ccc(CCNc2ncnc3ccccc23)cc1 [9a],> 25,> 25,> 25,,,,
COc1ccc(CCNc2ncnc3ccccc23)cc1 [11a],> 25,> 25,> 25,,,,
Fc1ccc2ncnc(NCCc3ccc(OC(F)(F)F)cc3)c2c1 [16a],,,,> 25,> 25,> 25,
Clc1ccc(CCNc2ncnc3ccccc23)cc1 [8a],> 25,> 25,> 25,,,,
COc1nc2ccc(Br)cc2cc1[C@@H](c1ccccc1)[C@@](O)(CCN(C)C)c1cccc2ccccc12 [BDQ],0.06 ± 0.019,0.05 ± 0.003,0.17 ± 0.019,,,,
FC(F)(F)Oc1ccc(CCNc2ncnc3cc(Br)ccc23)cc1 [21a],,,,> 25,> 25,> 25,
FC(F)(F)Oc1cccc(CCNc2ncnc3ccccc23)c1 [13a],> 25,> 25,> 25,,,,
FC(F)(F)Oc1ccc(CCNc2ncnc3cc(Cl)ccc23)cc1 [20a],,,,> 25,> 25,> 25,
COc1ccc2ncnc(NCCc3ccc(OC(F)(F)F)cc3)c2c1 [18a],,,,> 25,> 25,> 25,
COc1ccc2c(NCCc3ccc(OC(F)(F)F)cc3)ncnc2c1 [23a],,,,> 25,> 25,> 25,
